Non-standard residues stand in square brackets, D forms with d. Residues, ends and D or L forms follow the SMILES beside them. Ahx = NCCCCCC(=O)O
Test: Peptide stability in human serum
Assay type: in vitro ADME
Details: human serum (Gibco), 37 °C, intact peptide by MALDI-TOF MS, triplicate, mean; for remaining at 6 h: 6 h incubation, read-out: percentage of peptide recovered in human serum, 6 h; for remaining at 24 h: 24 h incubation, read-out: percentage of peptide recovered in human serum, 24 h
Procedure: The peptide TT1-IP was incubated at 37 °C in […] of human serum (Gibco, Illikirch, France) for different periods of time. Samples were collected and peptide degradation stopped by freezing at −20 °C. The peptide was extracted from samples using the Proteo Miner Protein Enrichment System (Bio-Rad, Marnes-la-Coquette, France). The percentage of intact peptide was estimated by mass spectrometry (MS) using MALDI-TOFF with the protocol previously described (Bruker Autoflex II, Palaiseau, France) according to the manufacturer’s instructions. Measurements were performed in triplicate. MS data were analysed using the software Cliprot tools, Flex analysis, Bruker.
iRGD-IP and Lin TT1-IP were incubated in human serum at 37 °C for different periods of time. The integrity of the peptide was analyzed by mass spectrometry (MS). Every measurement was performed in triplicate. Each value is represented as the mean ± standard deviation (SD). Similar results were obtained in two independent experiments.

Row | Structure (SMILES) | remaining at 1 h (1 h incubation, read-out: percentage of peptide recovered in human serum, 1 h) [%] | remaining at 6 h [%] | remaining at 24 h [%] | remaining at 3 h (3 h incubation, read-out: percentage of peptide recovered in human serum, 3 h) [%]
1 | CC[C@H](C)[C@H](NC(=O)[C@H](CCCNC(=N)N)NC(=O)[C@H](CCC(=O)O)NC(=O)[C@H](CCCNC(=N)N)NC(=O)[C@H](Cc1ccc(O)cc1)NC(=O)[C@H](CCCNC(=N)N)NC(=O)[C@@H](NC(=O)[C@H](CCCCN)NC(=O)[C@H](CC(C)C)NC(=O)[C@H](C)NC(=O)[C@@H](NC(=O)[C@H](CC(C)C)NC(=O)[C@H](CC(C)C)NC(=O)[C@@H](NC(=O)[C@@H](NC(=O)[C@@H](NC(=O)[C@@H](N)CCC(=O)O)[C@@H](C)O)C(C)C)[C@@H](C)O)C(C)C)C(C)C)C(=O)N[C@H](C(=O)NCCCCCC(=O)N[C@H]1CSSC[C@@H](C(N)=O)NC(=O)[C@H](CC(=O)O)NC(=O)[C@@H]2CCCN2C(=O)CNC(=O)[C@H](CCCCN)NC(=O)[C@H](CC(=O)O)NC(=O)CNC(=O)[C@H](CCCNC(=N)N)NC1=O)[C@@H](C)O [iRGD-IP] | 91 | 77 | 62 | 
2 | CC[C@H](C)[C@H](NC(=O)[C@H](CCCNC(=N)N)NC(=O)[C@H](CCC(=O)O)NC(=O)[C@H](CCCNC(=N)N)NC(=O)[C@H](Cc1ccc(O)cc1)NC(=O)[C@H](CCCNC(=N)N)NC(=O)[C@@H](NC(=O)[C@H](CCCCN)NC(=O)[C@H](CC(C)C)NC(=O)[C@H](C)NC(=O)[C@@H](NC(=O)[C@H](CC(C)C)NC(=O)[C@H](CC(C)C)NC(=O)[C@@H](NC(=O)[C@@H](NC(=O)[C@@H](NC(=O)[C@@H](N)CCC(=O)O)[C@@H](C)O)C(C)C)[C@@H](C)O)C(C)C)C(C)C)C(=O)N[C@H](C(=O)NCCCCCC(=O)N[C@@H](C)C(=O)N[C@@H](CCCCN)C(=O)N[C@@H](CCCNC(=N)N)C(=O)NCC(=O)N[C@@H](C)C(=O)N[C@@H](CCCNC(=N)N)C(=O)N[C@@H](CO)C(=O)N[C@H](C(=O)N[C@@H](C)C(N)=O)[C@@H](C)O)[C@@H](C)O [Lin TT1-IP] (H-ETVTLLVALKVRYRERIT[Ahx]AKRGARSTA-NH2) |  | 44 | ~30 | ~80
